Test results: paper PMC11099041, “Tissue distribution and retention drives efficacy of rapidly clearing VHL-based PROTACs” (Communications Medicine, 2024)

How the values were obtained:
[1] = Protein binding by equilibrium dialysis (plasma, tissue homogenates, DPBS); assay type: in vitro ADME, rat
Procedure: Control plasma was purchased from BioIVT, Hicksville, New York. Pooled plasma was obtained from at least three rats with K2EDTA as the anticoagulant. Control plasma was used to test the suitability of the system and for positive control analysis. Dulbecco’s phosphate-buffered saline (DPBS) (Millipore Sigma, St Louis, Missouri) was used to test the suitability of the system and as the receiver side of the dialysis device. […] The stock solution was added to the matrix (plasma or DPBS) and swirled to mix. The fortified matrix was then incubated at 37 °C for 15 min. Triplicate aliquots of the fortified matrix were analyzed by LSC.
The high throughput dialysis apparatus, model HTD96b, was used (HTDialysis LLC, Gales Ferry, Connecticut). Prior to assembly, dialysis membrane strips (molecular weight cutoff of 6–8 kDa) were hydrated, and the Teflon bars were assembled according to manufacturer’s instructions, with dialysis membrane strips laid between bars creating two compartments per well. The assembled unit was locked in place in the steel base plate. A 150 µL aliquot of each fortified matrix (tissue homogenates, plasma, or DPBS) and DPBS were added to the donor and receiver side of the HTD wells in a Teflon plate, respectively, and the plate was sealed. Samples were incubated at 37 °C and rotated at 300 rpm for 7 hours. After incubation, the seal was removed, and tissue homogenates, plasma, or DPBS and dialysate from each device insert were analyzed by LSC. All protein binding determinations were performed in triplicate.
Dialysis was performed accordingly. The radioactivity concentration of the test article in the donor and receiver samples was determined by LSC (count time 60 min) for the calculation of protein binding. […] After the designated time, aliquots of the individual donor and receiver samples were removed and analyzed by LSC. The remaining sample volume was stored at −20 °C.
Dialysis was performed accordingly.
Protein binding by equilibrium dialysis:1 PercentDrugBound=(Cm-Cd)/Cm×100 2 PercentDrugUnbound=100-PercentBound where: Cd, concentration of test article in dialysate at equilibrium; Cm, Concentration of test article in matrix at equilibrium.
Recovery from equilibrium dialysis:3 Recovery(%)=(Cm×Vm)+(Cd×Vd)/(Co×Vo)×100 where: Cm, Concentration of test article in matrix at equilibrium; Cd, Concentration of test article in dialysate at equilibrium; Co, Original concentration of test article in matrix prior to loading the dialysis device; Vm, Nominal volume of the matrix at equilibrium; Vd, Nominal volume of the dialysate at equilibrium; Vo, Nominal volume of the original matrix added to the dialysis device.

[2] = rat, in vivo
Source text: Male Sprague Dawley rats, intact or bile-cannulated, were from Envigo RMS, Inc. The animals were acclimated to study conditions for five days prior to dose administration. During acclimation, animals were individually housed in suspended, stainless steel, wire-mesh cages. During the test period, animals were placed in Nalgene cages designed for the collection of urine, feces, and bile. Certified Rodent Diet #2016C or 2016CM (Envigo RMS, Inc.) were provided ad libitum. Water was provided fresh daily. Environmental controls for the animal room were set to maintain a temperature of 20-26 °C, a relative humidity of 50 ± 20%, and a 12-hour light/12-hour dark cycle. […] Three BDC rats were used for collection of bile, urine, and feces, five intact rats for collection of plasma, blood, urine, feces, and tissues, and eight intact rats for collection of blood and carcasses for QWBA. […] The vehicle for the IV dose was 20% 2-hydroxypropyl-β-cyclodextrin (HP-β-CD) in 50 mM sodium acetate buffer, pH 4.0. […] The supernatant was removed, and the formulation appeared to be a very slight yellow solution. Stability was checked by HPLC analysis of pre- and post-dose aliquots. Animals were not fasted. The actual amount administered was determined by weighing the dose syringe before and after dose administration. The IV dose of 4 mg/kg was administered via a tail vein. For QWBA rats, one animal/time point was prepared for QWBA at approximately 0.25, 1, 4, 8, 24, 48, 168, and 336 hours. […] Blood was maintained on wet ice until being aliquoted for radioanalysis and centrifuged to obtain plasma. […] Each carcass was drained, blotted dry, placed into an appropriately labeled bag, and placed on dry ice or stored at ~-70 °C for at least 2 hours. The frozen carcasses were embedded in chilled carboxymethylcellulose and frozen into blocks. Embedded carcasses were stored at ~-20 °C in preparation for autoradiographic analysis. The samples were stored at -70 °C before analysis. […] Prior to section collection, standards fortified with ^14C radioactivity were placed into the frozen block containing the carcass and were used for monitoring the uniformity of section thickness. Appropriate sections were collected on adhesive tape at 40 μm thickness, in a Leica CM 3600 cryomicrotome in accordance with Covance standard operating procedures. Sections were collected at five levels of interest in the sagittal plane. All major tissues, organs, and biological fluids were represented. Collected sections were dried at ~-20 °C. A section set from each animal was prepared by mounting a representative section from each level of interest. Mounted sections were tightly wrapped with Mylar film and exposed on phosphor-imaging screens along with fortified blood standards for subsequent calibration of the image analysis software. Screens were exposed for 4 days. Exposed screens were scanned using a Typhoon scanner. The autoradiographic standard image data were sampled using InterFocus Imaging Ltd. MCIDTM Analysis software to create a calibrated standard curve. Specified tissues, organs, and fluids were analyzed. […] Tissue concentration data are presented in tabular format. Autoradiographs were annotated. The mean time concentration profile was generated for each group, and an overall AUC was then calculated with these sparse samples of rats and mice. […]

CYP3A4/5 = test: Reversible P450 inhibition in HLM; assay type: biochemical; settings: human, human liver microsomes
Procedure: The reversible P450 inhibition assay was conducted in triplicate on a BioCel 1200 System, V11 (Agilent, CA), as previously described by Kosaka, et al.[28] […] […] P450 activity was expressed as the peak area ratio of a P450-specific metabolite formed relative to its internal standard, and inhibition percentage was calculated from P450 activity of samples relative to the solvent control. Inhibition data were processed using Prism (GraphPad Software, San Diego, CA) to calculate IC50 values for each P450 enzyme.

Cc1ncsc1-c1ccc(C(C)NC(=O)C2CC(O)CN2C(=O)C(c2cc(N3CCC(CN4CCC(OC5CC(Oc6cc(N7C8CCC7CN(c7cc(-[14c]9[14cH][14cH][14cH][14cH][14c]9O)nnc7N)C8)ccn6)C5)CC4)CC3)no2)C(C)C)cc1 (centres unmarked) [14C-A947]
Percent Bound [1]: 99.3% | Percentage bound (mean), Control Plasma [1]: 99.2% | Percentage bound (mean), Kidney [1]: 100% | Percentage bound (mean), Liver [1]: 100% | Percentage bound (mean), Lungs [1]: 99.5% | Percentage bound (mean), Pancreas [1]: 100% | Percentage bound (mean), Plasma (4 hour) [1]: 96.8% | Percentage bound (mean), Plasma (24 hour) [1]: 98.2% | Percentage bound (mean), Plasma (48 hour) [1]: 97.5% | Percentage bound (mean), Prostate Gland [1]: 99.8% | Percentage bound (mean), Spleen [1]: 99.1% | Percentage bound (mean), Thymus [1]: 100% | Fu ([1]; rat, plasma): 0.007 | Percentage unbound (mean), Control Plasma ([1]; rat, plasma): 0.795% | Percentage unbound (mean), Plasma (4 hour) ([1]; rat, plasma): 0.548% | Percentage unbound (mean), Plasma (24 hour) ([1]; rat, plasma): 0.595% | Percentage unbound (mean), Plasma (48 hour) ([1]; rat, plasma): 0.863% | Percentage unbound (mean), Liver ([1]; rat, tissue homogenate): 0.0298% | Percentage unbound (mean), Lungs ([1]; rat, tissue homogenate): 0.09% | Percentage unbound (mean), Pancreas ([1]; rat, tissue homogenate): 0.0125% | Percentage unbound (mean), Thymus ([1]; rat, tissue homogenate): 0.0426% | Half-life (t1/2) in tissues [2]: 87 to 100 h | Radioactivity t1/2, brain cerebellum [2]: 11 h | Radioactivity t1/2, small intestine [2]: 167 h | Cmax, adrenal glands ([2]; iv, 4 mg/kg): 17 µg/g | Cmax, kidneys ([2]; iv, 4 mg/kg): 22 µg/g | Cmax, liver ([2]; iv, 4 mg/kg): 32 µg/g | Cmax, lungs ([2]; iv, 4 mg/kg): 12 µg/g | Cmax, pancreas ([2]; iv, 4 mg/kg): 9 µg/g | Cmax, salivary glands ([2]; iv, 4 mg/kg): 12 µg/g | Cmax, spleen ([2]; iv, 4 mg/kg): 21 µg/g | Cmax, thyroid gland ([2]; iv, 4 mg/kg): 18 µg/g | t½ ([2]; iv, 4 mg/kg): 111 h

Cc1ncsc1-c1ccc(C(C)NC(=O)C2CC(O)CN2C(=O)C(c2cc(N3CCC(CN4CCC(OC5CC(Oc6cc(N7C8CCC7CN(c7cc(-c9ccccc9O)nnc7N)C8)ccn6)C5)CC4)CC3)no2)C(C)C)cc1 (centres unmarked) [A947]
IC50 (CYP3A4/5; pH 7.4, probe midazolam, substrate Midazolam): 540 nM | IC50 (CYP3A4/5; pH 7.4, probe testosterone, substrate Testosterone): > 10000 nM
